Assay results: the supplement of paper PMC13380429

Assays:
Conditions in all cases: 72 h
HepG2 [1] = assay: cell viability relative to DMSO; higher = less toxic
Vero E6 [2] = assay: as above
Caco-2 [3] = assay: as above
Calu-3 [4] = assay: as above
U2OS [5] = assay: as above
HepG2 [6] = assay: relative viability EC50 (midpoint between 100% and the lowest measured viability); higher = less toxic
Vero E6 [7] = assay: as above
Caco-2 [8] = assay: as above
Calu-3 [9] = assay: as above
U2OS [10] = assay: as above
HepG2 [11] = assay: drug sensitivity score (DSS) for viability; higher = more toxic; extreme values may be limits of the assay
Vero E6 [12] = assay: as above
Caco-2 [13] = assay: as above
Calu-3 [14] = assay: as above
U2OS [15] = assay: as above

Row | SMILES | cell viability (HepG2 [1]; 1 nM) [%] | cell viability (HepG2 [1]; 10 nM) [%] | cell viability (HepG2 [1]; 100 nM) [%] | cell viability (HepG2 [1]; 1000 nM) [%] | cell viability (HepG2 [1]; 10000 nM) [%] | cell viability (Vero E6 [2]; 1 nM) [%] | cell viability (Vero E6 [2]; 10 nM) [%] | cell viability (Vero E6 [2]; 100 nM) [%] | cell viability (Vero E6 [2]; 1000 nM) [%] | cell viability (Vero E6 [2]; 10000 nM) [%] | cell viability (Caco-2 [3]; 1 nM) [%] | cell viability (Caco-2 [3]; 10 nM) [%] | cell viability (Caco-2 [3]; 100 nM) [%] | cell viability (Caco-2 [3]; 1000 nM) [%] | cell viability (Caco-2 [3]; 10000 nM) [%] | cell viability (Calu-3 [4]; 1 nM) [%] | cell viability (Calu-3 [4]; 10 nM) [%] | cell viability (Calu-3 [4]; 100 nM) [%] | cell viability (Calu-3 [4]; 1000 nM) [%] | cell viability (Calu-3 [4]; 10000 nM) [%] | cell viability (U2OS [5]; 1 nM) [%] | cell viability (U2OS [5]; 10 nM) [%] | cell viability (U2OS [5]; 100 nM) [%] | cell viability (U2OS [5]; 1000 nM) [%] | cell viability (U2OS [5]; 10000 nM) [%] | relative viability EC50 (HepG2 [6]) [µM] | relative viability EC50 (Vero E6 [7]) [µM] | relative viability EC50 (Caco-2 [8]) [µM] | relative viability EC50 (Calu-3 [9]) [µM] | relative viability EC50 (U2OS [10]) [µM] | drug sensitivity score (HepG2 [11]) | drug sensitivity score (Vero E6 [12]) | drug sensitivity score (Caco-2 [13]) | drug sensitivity score (Calu-3 [14]) | drug sensitivity score (U2OS [15])
1 | CC1(C)S[C@@H]2[C@H](N3C(=O)[C@@H](c4ccccc4)NC3(C)C)C(=O)N2[C@H]1C(=O)O [hetacillin] | 95.6 | 101 | 102 | 110 | 93.8 | 109 | 97.6 | 94.7 | 110 | 90.4 | 98.3 | 92.7 | 96.8 | 93.4 | 86.4 | 99.4 | 94.3 | 104 | 100 | 113 | 100 | 95.7 | 101 | 95 | 99.5 | > 10 | > 10 | > 10 | > 10 | > 10 | 0 | 0 | 0 | 0 | 0
2 | Oc1ccc(C(O)CNCCCCCCNCC(O)c2ccc(O)c(O)c2)cc1O (stereo not given) [hexoprenaline] | 103 | 104 | 110 | 93.2 | 103 | 103 | 109 | 99.2 | 101 | 98.7 | 97.3 | 102 | 93.7 | 95.9 | 88.3 | 95.8 | 97.9 | 99.7 | 97.9 | 100 | 102 | 97.6 | 95.4 | 102 | 95 | > 10 | > 10 | > 10 | > 10 | > 10 | 0 | 0 | 0 | 0 | 0
3 | O=[N+]([O-])/N=C1\NCCN1Cc1ccc(Cl)nc1 [imidacloprid] | 98.2 | 109 | 99.7 | 98.9 | 93.1 | 95.1 | 95.8 | 96.7 | 98 | 96.5 | 104 | 94.6 | 99.8 | 88.6 | 104 | 103 | 98.5 | 103 | 98.8 | 106 | 97.4 | 95.7 | 103 | 92.3 | 94.4 | > 10 | > 10 | > 10 | > 10 | > 10 | 0 | 0 | 0 | 0 | 0
4 | CC1(C)C(/C=C/C=C/C=C/C=C2\N(CCCCS(=O)(=O)O)c3ccc4ccccc4c3C2(C)C)=[N+](CCCCS(=O)(=O)[O-])c2ccc3ccccc3c21 [indocyanine-green] | 93.1 | 89.4 | 106 | 94.9 | 94.5 | 96.5 | 99.4 | 102 | 101 | 94.1 | 98.2 | 87.1 | 105 | 94.8 | 86.9 | 98.6 | 108 | 91.6 | 96 | 88.3 | 105 | 101 | 97.4 | 99.1 | 95.4 | > 10 | > 10 | > 10 | > 10 | > 10 | 0 | 0 | 0.4 | 0 | 0
5 | O=C(O[C@H]1[C@H](OC(=O)c2cccnc2)[C@@H](OC(=O)c2cccnc2)[C@H](OC(=O)c2cccnc2)[C@@H](OC(=O)c2cccnc2)[C@H]1OC(=O)c1cccnc1)c1cccnc1 [inositol-hexanicotinate] | 90.9 | 112 | 89.1 | 96.5 | 94.6 | 105 | 102 | 90.9 | 93.7 | 113 | 92.2 | 88.9 | 103 | 89.3 | 91.2 | 102 | 93.3 | 100 | 103 | 110 | 92.4 | 90.5 | 99 | 98.5 | 99.4 | > 10 | > 10 | > 10 | > 10 | > 10 | 0 | 0 | 0 | 0 | 0
